In patent US20240002397A1, “3-AMINO PYRROLIDINE AND PIPERIDINE MACROCYCLIC OREXIN RECEPTOR AGONISTS” (Merck Sharp & Dohme LLC, priority 2020, published 2024):

These molecules were tested against T1, human OX2R (Homo sapiens, UniProt O43614) (assay: IPOne (IP-1) orexin receptor agonist assay in CHO cells expressing human OX2R). Conditions: CHO, hOX2R IP-One; percentage of mean max effect of a reference compound at 1 uM with 100% activity.
T1 sequence (O43614 1-444): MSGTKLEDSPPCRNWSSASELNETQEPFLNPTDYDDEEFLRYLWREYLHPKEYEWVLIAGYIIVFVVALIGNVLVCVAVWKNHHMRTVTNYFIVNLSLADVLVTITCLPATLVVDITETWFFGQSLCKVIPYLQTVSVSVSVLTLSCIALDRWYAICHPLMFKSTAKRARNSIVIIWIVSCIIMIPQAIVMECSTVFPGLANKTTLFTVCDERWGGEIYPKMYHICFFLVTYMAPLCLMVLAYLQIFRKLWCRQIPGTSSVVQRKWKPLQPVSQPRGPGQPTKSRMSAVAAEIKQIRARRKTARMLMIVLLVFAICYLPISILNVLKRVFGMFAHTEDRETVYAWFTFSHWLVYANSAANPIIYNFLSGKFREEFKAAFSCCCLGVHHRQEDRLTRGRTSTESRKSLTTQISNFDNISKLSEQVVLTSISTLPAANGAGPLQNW
Description: In atypical experiment, the OX1 and OX2 receptor agonist activity is determined in accordance with the following general experimental method. Chinese hamster ovary (CHO) cells expressing human OX1R and/or the human OX2R were grown in Iscove's modified DMEM containing glutaMAX™, 1% G418, 100 U/mL penicillin, 100 μg/mL streptomycin and 10% heat-inactivated qualified fetal bovine serum (FBS). […] During this incubation, IP-one detection reagents were prepared (38:1:1 lysis buffer:D2:AB-cryptate reagents).
For each compound, data were fit to a four parameter logistic fit (ActivityBase software) and the EC50 was reported as the inflection point of the resulting curve.
`C[C@@H]1C[C@H](NS(C)(=O)=O)C2COC3CCC(CC3)c3ccc(OC(F)(F)F)c(n3)OCCOC(=O)N21` (some centres unmarked) [Example 72, N-((2^1S,2^4S,5^2R,5^3S,5^5R)-5^5-methyl-6-oxo-1^5-(trifluoromethoxy)-3,7,10-trioxa-1(2,6)-pyridina-5(2,1)-pyrrolidina-2(1,4)-cyclohexanacyclodecaphane-5^3-yl)methanesulfonamid] was tested, and the Emax was 102%.
For `CS(=O)(=O)N[C@H]1CCCN2C(=O)CCCCOc3cccc(c3)C3CCC(CC3)OC[C@@H]12` [Example 29, N-((2^1S,2^4S,5^2R,5^3S)-6-oxo-3,11-dioxa-5(2,1)-piperidina-1(1,3)-benzena-2(1,4)-cyclohexanacycloundecaphane-5^3-yl)methanesulfonamide], the Emax was 101%.
`C[C@@H]1C[C@H](NS(C)(=O)=O)C2COC3CCC(CC3)c3cc(C(F)F)cc(n3)OCCCOC(=O)N21` (some centres unmarked) [Example 86, N-((2^1S,2^4S,5^2R,5^3S,5^5R)-1^4-(difluoromethyl)-5^5-methyl-6-oxo-3,7,11-trioxa-1(2,6)-pyridina-5(2,1)-pyrrolidina-2(1,4)-cyclohexanacycloundecaphane-5^3-yl)methanesulfonamide] gave an Emax of 101%.
For `CC(C)Oc1ccc2cc1C1CCC(CC1)OCC1[C@@H](NS(C)(=O)=O)C[C@@H](C)N1C(=O)OCCO2` (some centres unmarked) [Example 62, N-((2^1S,2^4S,5^2R,5^3S,5^5R)-1^6-isopropoxy-5^5-methyl-6-oxo-3,7,10-trioxa-5(2,1)-pyrrolidina-1(1,3)-benzena-2(1,4)-cyclohexanacyclodecaphane-5^3-yl)methanesulfonamide], the Emax was 91.2%.
For `CN(C)S(=O)(=O)N[C@H]1CCN2C(=O)OCCCOc3cccc(c3)[C@H]3CC[C@H](CC3)OC[C@@H]12` [Example 16, N′-((2^1S,2^4S, 5^2R,5^3S)-6-oxo-3,7,11-trioxa-5(2,1)-pyrrolidina-1(1,3)-benzena-2(1,4)-cyclohexana-cyclounde-caphane-5^3-yl)-N,N-dimethyl-sulfamide], the Emax was 99.1%.
In the case of `C[C@@H]1C[C@H](NS(=O)(=O)N(C)C)C2COC3CCC(CC3)c3cccc(c3)OCCCC(=O)N21` (some centres unmarked) [Example 14, N′-((2^1S,2^4S,5^2R, 5^3S,5^5R)-5^5-methyl-6-oxo-3,10-dioxa-5(2,1)-pyrrolidina-1(1,3)-benzena-2(1,4)-cyclohexana-cyclodecaphane-5^3-yl)-N,N-methyl-sulfamide], the Emax is reported as 100%.
With `CS(=O)(=O)N[C@H]1C[C@@H](CC(N)=O)N2C(=O)OCCCOc3cc(C(F)F)cc(n3)C3CCC(CC3)OCC12` (some centres unmarked) [Example 102, 2-((2^1S,2^4S,5^2R,5^3S,5^5S)-1^4-(difluoromethyl)-5^3-(methylsulfonamido)-6-oxo-3,7,11-trioxa-1(2,6)-pyridina-5(2,1)-pyrrolidina-2(1,4)-cyclohexanacycloundecaphane-5^5-yl)acetamide] the Emax was 99.8%.
Work on `CN(C)S(=O)(=O)N[C@H]1CCN2C(=O)CCCCNc3cccc(c3)[C@H]3CC[C@H](CC3)OC[C@@H]12` [Example 23, N′-((2^1S,2^4S,5^2R,5^3S)-6-oxo-3-oxa-11-aza-5(2,1)-pyrrolidina-1(1,3)-benzena-2(1,4)-cyclohexanacycloundecaphane-5^3-yl)-N,N-dimethyl-sulfamide] yielded an Emax of 102%.
In the case of `C[C@@H]1C[C@H](NS(C)(=O)=O)C2COC3CCC(CC3)c3cccc(c3)OCCCCC(=O)N21` (some centres unmarked) [Example 19, N-((2^1S,2^4S, 5^2R,5^3S,5^5R)-5^5-methyl-6-oxo-3,11-dioxa-5(2,1)-pyrrolidina-1(1,3)-benzena-2(1,4)-cyclohexana-cyclounde-caphane-5^3-yl) methanesulfonamide], the Emax is reported as 101%.
`C[C@@H]1C[C@H](NS(C)(=O)=O)C2COC3CCC(CC3)c3ccc(F)c(n3)OCCOC(=O)N21` (some centres unmarked) [Example 56, N-((2^1S,2^4S,5^2R,5^3S,5^5R)-1^5-fluoro-5^5-methyl-6-oxo-3,7,10-trioxa-1(2,6)-pyridina-5(2,1)-pyrrolidina-2(1,4)-cyclohexanacyclodecaphane-5^3-yl)methanesulfonamide] was tested, and the Emax was 98.2%.
`C[C@@H]1C[C@H](NS(C)(=O)=O)C2COC3CCC(CC3)c3ccc(C(F)(F)F)c(n3)OCCOC(=O)N21` (some centres unmarked) [Example 64, N-((2^1S,2^4S,5^2R,5^3S,5^5R)-5^5-methyl-6-oxo-1^5-(trifluoromethyl)-3,7,10-trioxa-1(2,6)-pyridina-5(2,1)-pyrrolidina-2(1,4)-cyclohexanacyclodecaphane-5^3-yl)methanesulfonamide] showed an Emax of 102%.
In the case of `C[C@@H]1C[C@H](NS(C)(=O)=O)C2COC3CCC(CC3)c3ccc(F)c(n3)OCCCOC(=O)N21` (some centres unmarked) [Example 57, N-((2^1S,2^4S,5^2R,5^3S,5^5R)-1^5-fluoro-5^5-methyl-6-oxo-3,7,11-trioxa-1(2,6)-pyridina-5(2,1)-pyrrolidina-2(1,4)-cyclohexanacycloundecaphane-5^3-yl)methanesulfonamide], the Emax is reported as 102%.
`CC(C)Oc1ccc2cc1C1CCC(CC1)OCC1[C@@H](NS(C)(=O)=O)C[C@@H](C)N1C(=O)OCCCO2` (some centres unmarked) [Example 63, N-((2^1S,2^4S,5^2R,5^3S,5^5R)-1^6-isopropoxy-5^5-methyl-6-oxo-3,7,11-trioxa-5(2,1)-pyrrolidina-1(1,3)-benzena-2(1,4)-cyclohexanacycloundecaphane-5^3-yl)methanesulfonamide] was tested, and the Emax was 93.1%.
For `C[C@@H]1C[C@H](NS(C)(=O)=O)C2COC3CCC(CC3)c3cnc(F)c(c3)OCCCOC(=O)N21` (some centres unmarked) [Example 55, N-((2^1S,2^4S,5^2R,5^3S,5^5R)-1^6-fluoro-5^5-methyl-6-oxo-3,7,11-trioxa-1(3,5)-pyridina-5(2,1)-pyrrolidina-2(1,4)-cyclohexanacycloundecaphane-5^3-yl)methanesulfonamide], the Emax was 103%.
With `C[C@@H]1C[C@H](NS(C)(=O)=O)C2COC3CCC(CC3)c3ccc(OC(F)(F)F)c(n3)OCCCOC(=O)N21` (some centres unmarked) [Example 73, N-((2^1S,2^4S,5^2R,5^3S,5^5R)-5^5-methyl-6-oxo-1^5-(trifluoromethoxy)-3,7,11-trioxa-1(2,6)-pyridina-5(2,1)-pyrrolidina-2(1,4)-cyclohexanacycloundecaphane-5^3-yl)methanesulfonamide] the Emax was 100%.
Molecule `CNC[C@@H]1C[C@H](NS(C)(=O)=O)C2COC3CCC(CC3)c3cc(C(F)F)cc(n3)OCCCOC(=O)N21` (some centres unmarked) [Example 101, N-((2^1S,2^4S,5^2R,5^3S,5^5S)-1^4-(difluoromethyl)-5^5-((methylamino)methyl)-6-oxo-3,7,11-trioxa-1(2,6)-pyridina-5(2,1)-pyrrolidina-2(1,4)-cyclohexanacycloundecaphane-5^3-yl)methanesulfonamide] has an Emax of 102%.
`CS(=O)(=O)N[C@H]1CCCN2C(=O)CCCCOc3ccccc3[C@H]3CC[C@H](CC3)OC[C@@H]12` [Example 24, N-((2^1S,2^4S,5^2R,5^3S)-6-oxo-3,1′-dioxa-5(2,1)-piperidina-1(1,2)-benzena-2(1,4)-cyclohexanacycloundecaphane-5^3-yl)methanesulfonamide] was tested, and the Emax was 99.2%.
`C[C@@H]1C[C@H](NS(C)(=O)=O)C2COC3CCC(CC3)c3cc(F)cc(c3)OCCCCC(=O)N21` (some centres unmarked) [Example 44, N-((2^1S,2^4S, 5^2R,5^3S,5^5R)-1^5-fluoro-5^5-methyl-6-oxo-3,11-dioxa-5(2,1)-pyrrolidina-1(1,3)-benzena-2(1,4)-cyclohexana-cyclounde-caphane-5^3-yl)methane-sulfonamide] gave an Emax of 102%.
For `C[C@@H]1C[C@H](NS(C)(=O)=O)C2COC3CCC(CC3)c3nc(ccc3C(F)(F)F)N(C)CCCOC(=O)N21` (some centres unmarked) [Example 94, N-((2^1S,2^4S,5^2R,5^3S,5^5R)-5^5,1^1-dimethyl-6-oxo-1^3-(trifluoromethyl)-3,7-dioxa-11-aza-1(2,6)-pyridina-5(2,1)-pyrrolidina-2(1,4)-cyclohexanacycloundecaphane-5^3-yl)methanesulfonamid], the Emax was 37.5%.

Same assay, conditions: hOX2R IP-One; percentage of mean max effect of a reference compound at 1 uM with 100% activity
For `CS(=O)(=O)NC1CCCN2C(=O)CCCOc3cccc(c3)C3CCC(C3)OCC12` (single isomer, unassigned) [Example 35, N-((2^1S,2^3R,5^2R,5^3S)-6-oxo-3,10-dioxa-5(2,1)-piperidina-1(1,3)-benzena-2(1,3)-cyclopentanacyclodecaphane-5^3-yl)methanesulfonamide], the “Emax (%)” value was 100.1%.
For `CN(C)S(=O)(=O)NC1CCN2C(=O)OCCCCc3cccc(c3)C3CCC(CC3)OCC12` (centres unmarked) [Example 21, N′-((2^1S,2^4S,5^2R,5^3S)-6-oxo-3,7-dioxa-5(2,1)-pyrrolidina-1(1,3)-benzena-2(1,4)-cyclohexanacycloundecaphane-5^3-yl)-N,N-dimethyl-sulfamide], the “Emax (%)” value was 100.5%.
For `CC1CC(NS(C)(=O)=O)C2COC3CCC(CC3)c3cc(C(F)(F)F)cc(n3)CCCCOC(=O)N12` (centres unmarked) [Example 109, N-((2^1S,2^4S,5^2R,5^3S,5^5R)-5^5-methyl-6-oxo-14-(trifluoromethyl)-3,7-dioxa-1(2,6)-pyridina-5(2,1)-pyrrolidina-2(1,4)-cyclohexanacycloundecaphane-5^3-yl)methanesulfonamide], the “Emax (%)” value was 102.4%.
In the case of “N′-((2^1S,2^4S,5^2R,5^3S)-6-oxo-3,7-dioxa-5(2,1)-piperidina-1(1,2)-benzena-2(1,4)-cyclohexanacyclononaphane-5^3-yl)-N,N-dimethyl-sulfamide [Example 37]”, the “Emax (%)” value is reported as 5.8%.
